Like-named read-outs stand apart in the source and are kept apart here.
Columns and labels:
[1] = tested on: potato variety Caesar; assay: Cultivation emergence (germination) in potato field trial; type: in vivo, potato (Solanum tuberosum); details: 22 days after seeding, plants emerged in central furrows
Excerpt: (§1) The seeding was made on June 10. The potato variety used was Caesar, third-category tubercles were used. A soil application was made to all the treatments when fluoxastrobin fungicides were applied; 2-litters dose or commercial product per hectare, and penfuflen 0.650 litters dose per hectare; in order to prevent Fusarium spp. and/or Rhizoctoniasolani fungus attack. The experimental design used was random blocks with four repetitions; the experimental parcel was formed by four furrows at a distance between furrows of 0.92 m, and 10 meters length. The useful parcel consisted in two central furrows of each experimental parcel. Distance between plants was 0.25 m.
(§2) The applied treatments consisted in an application on the bottom of the furrow when the seeding was taking place, and eleven foliar applications.
Emergence: Cultivation emergence was determined; for which the number of plants that emerged in each parcel central furrows was counted at 100% emergence. The data were collected on Jul. 2, 2014 (22 days after seeding).

[2] = tested on: Bactericera cockerelli; assay: Bactericera cockerelli population dynamic (adults, nymphs, eggs) in potato field trial; type: in vivo; details: for average of registered adults: B. cockerelli adults, four-repetitions average; for B. Cokerelli eggs population average / Average of registered B.cokerelli nymphs: average of four repetitions
Excerpt: as §1, §2
Bactericera cockerelli, Population Dynamic: Studies on adult psilides, nymphs and eggs were population dynamic were made. For which purpose a count was made before the first foliar application and subsequently after each treatment application. To know the number of adults 20 net traps (with entomologic net) per experimental parcel, in each evaluation. To determine the number of eggs and nymphs, 50 pinnas were evaluated per parcel in each evaluation.

[3] = tested on: Zebra chip/purple top (Candidatus Liberibacter solanacearum / Candidatus Phytoplasma americanum); type: in vivo; details: relative to untreated treatment 1
[4] = tested on: potato variety Caesar; assay: Potato tubercle production at harvest; type: in vivo, potato (Solanum tuberosum); details: for Total production in Kilograms per parcel, Average: all categories, harvest; for Production in Kilograms per treatment categories: Combined: combined quality category; for Production in Kilograms per treatment categories: First: first quality category; for Production in Kilograms per treatment categories: Third: third quality category
Excerpt: as §1, §2
Production: In harvest, each treatment production was analyzed, for which two lineal meters were harvested of each experimental parcel central furrows, registering the potato tubercles production for each of the four categories (first, second, third and combined).

[5] = tested on: Zebra chip/purple top (Candidatus Liberibacter solanacearum); type: in vivo; details: cross cut tubercles, relative to untreated
[6] = tested on: Zebra chip (Candidatus Liberibacter solanacearum); type: in vivo; details: fried slices, under heading Flake Burning Severity

`N#Cc1ccccc1NC(=O)c1snc(Cl)c1Cl` [Treatment 3, Isotianil] was tested, and the “Emergence Percentage” value ([1]; listed as 3) was 61.2%, the “average of registered adults” value ([2]; 02-Sep., listed as T3) was 1.75 and the “average of registered adults” value ([2]; 5-Aug., 20 net traps per parcel, listed as T3) was 1. For the same compound, the “average of registered adults” value ([2]; 08-sep., listed as T3) was 0.5, the “average of registered adults” value ([2]; 12-Aug., listed as T3) was 1.25 and the “average of registered adults” value ([2]; 18-Aug., listed as T3) was 3.75. For the same compound, the “average of registered adults” value ([2]; 19-Sep., listed as T3) was 4.75, the “B. Cokerelli eggs population average” value ([2]; 08-sep., listed as T3) was 1.25 and the “B. Cokerelli eggs population average” value ([2]; 12-August, listed as T3) was 1.5. The “Average of registered B.cokerelli nymphs” value ([2]; 02-Sep., listed as T3) was 4.5, the “Average of registered B.cokerelli nymphs” value ([2]; 08-sep., listed as T3) was 3 and the “Average of registered B.cokerelli nymphs” value ([2]; 12-Aug., listed as T3) was 0. The “Average of registered B.cokerelli nymphs” value ([2]; 18-Aug., listed as T3) was 0, the “Zebra chip/purple top incidence control percentage” value ([3]; listed as 3) was 14.35% and the “Total production in Kilograms per parcel, Average” value ([4]; listed as 3) was 17.975 Kilograms per parcel. The “Production in Kilograms per treatment categories: Combined” value ([4]; listed as 3) was 39.8 Kilograms, the “Production in Kilograms per treatment categories: First” value ([4]; listed as 3) was 0 Kilograms and the “Production in Kilograms per treatment categories: Third” value ([4]; listed as 3) was 24.3 Kilograms. For the same compound, the “tubercle staining Incidence Control Percentage” value ([5]; listed as 3) was 35.01%, the “tubercle staining Severity Control Percentage” value ([5]; listed as 3) was 43.13% and the “Flake burning Incidence control percentage” value ([6]; listed as 3) was 31.3%.
With `N#Cc1ccccc1NC(=O)c1snc(Cl)c1Cl` [Treatment 4, Isotianil] the “Emergence Percentage” value ([1]; listed as 4) was 71.8%, the “average of registered adults” value ([2]; 02-Sep., listed as T4) was 0.25 and the “average of registered adults” value ([2]; 5-Aug., 20 net traps per parcel, listed as T4) was 0.75. For the same compound, the “average of registered adults” value ([2]; 08-sep., listed as T4) was 0, the “average of registered adults” value ([2]; 12-Aug., listed as T4) was 2 and the “average of registered adults” value ([2]; 18-Aug., listed as T4) was 1. The “average of registered adults” value ([2]; 19-Sep., listed as T4) was 2.75, the “B. Cokerelli eggs population average” value ([2]; 02-Sep.) was 0 and the “B. Cokerelli eggs population average” value ([2]; 5-August, 50 pinnas per parcel) was 0. The “B. Cokerelli eggs population average” value ([2]; 08-sep., listed as T4) was 0.75, the “B. Cokerelli eggs population average” value ([2]; 12-August, listed as T4) was 4.5 and the “B. Cokerelli eggs population average” value ([2]; 18-August) was 0. The “B. Cokerelli eggs population average” value ([2]; 19-Sep.) was 0, the “Average of registered B.cokerelli nymphs” value ([2]; 02-Sep., listed as T4) was 13.75 and the “Average of registered B.cokerelli nymphs” value ([2]; 5-Aug., 50 pinnas per parcel) was 0. The “Average of registered B.cokerelli nymphs” value ([2]; 08-sep., listed as T4) was 0, the “Average of registered B.cokerelli nymphs” value ([2]; 12-Aug., listed as T4) was 2.25 and the “Average of registered B.cokerelli nymphs” value ([2]; 18-Aug., listed as T4) was 0.25. The “Average of registered B.cokerelli nymphs” value ([2]; 19-Sep.) was 0, the “Zebra chip/purple top incidence control percentage” value ([3]; listed as 4) was 62.65% and the “Total production in Kilograms per parcel, Average” value ([4]; listed as 4) was 21.3 Kilograms per parcel. For the same compound, the “Production in Kilograms per treatment categories: Combined” value ([4]; listed as 4) was 37.7 Kilograms, the “Production in Kilograms per treatment categories: First” value ([4]; listed as 4) was 4 Kilograms and the “Production in Kilograms per treatment categories: Second” value ([4]; second quality category) was 7.8 Kilograms. The “Production in Kilograms per treatment categories: Third” value ([4]; listed as 4) was 35.7 Kilograms, the “tubercle staining Incidence Control Percentage” value ([5]; listed as 4) was 63.35% and the “tubercle staining Severity Control Percentage” value ([5]; listed as 4) was 74.50%. The “Flake burning Incidence control percentage” value ([6]; listed as 4) was 54%.

Reference: US20210251234A1 (priority 2015, published 2021)
